In the assay the test system is Aspergillus niger (ATCC 6275) and Penicillium pinophilum (ATCC 9644) mixture (interior films); Aureobasidium pullulans (ATCC 9348) (exterior films). Put plainly: dry-film mildew resistance test of sealer/barrier compositions on coated filter paper on malt agar. Type of assay: cell-based. To be noted: level of fungicide in the sealer/barrier composition; up to 14 days incubation. How it is done:
The above sealer/barrier compositions were tested to determine the performance of dry-films as protective sealers in preventing the development of mildew during testing on porous cellulosic substrates. Several test samples of the composition were prepared with levels of fungicide ranging from 250 ppm to 3000 ppm. In addition, a composition was prepared without fungicide for use as a control.
Individual samples of the sealer/barrier composition were weighed out. Fungicide was added to the samples of the sealer/barrier coating compositions in a ladder series of levels (e.g., 250, 500, 750 1000 ppm, etc.) and thoroughly mixed. The test porous cellulosic substrates consisting of Whatman No. 30 filter paper were first brush coated each with two (2) coats of test composition, and allowed to dry in a protected location. Duplicate two inch squares were then cut from the coated filter paper specimens and placed on the surface on malt agar petri plates.
Test inoculums consisting of aqueous spore suspensions at a concentrations of ˜10^5 spores were prepared in sterile water. Those films (compositions) which were intended for use in interior application were inoculated with a mixture of Aspergillus niger (ATCC 6275) and Penicillium pinophilum (ATCC 9644). Films intended for exterior application were inoculated with Aureobasidium pullulans (ATCC 9348). […]

For `c1ccc2[nH]c(-c3cscn3)nc2c1` [biocide, 2-(4-thiazoyl)benzimidazole], the “biocide level capable of preventing mold development on the substrate” value is not above 250 ppm.
